Experiment in all cases: Test 1A glasshouse assay, post-emergence herbicidal activity
Format in all cases: in vivo

Experiment [1] has as its system Echinochloa crus-galli (ECHCG). The following applies: Echinochloa crus-galli, 312 h, application rate 250 g/ha, 13 days after application, visual (100%=total damage; 0%=no damage), read-out: Post-emergence Herbicidal Activity (% Phytotoxicity) ECHCG. The procedure, abridged:
(§1)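 Post-emergence: plants sprayed after 8 days' glasshouse growth (24/16° C, 14 h light, 65% humidity) with acetone/water (50:50) formulation containing 0.5% Tween 20. Visual % phytotoxicity (0 = none, 100 = total damage) scored 13 days after application.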

The test system of experiment [2] is Avena fatua (AVEFA). The following applies: Avena fatua, 312 h, application rate 250 g/ha, 13 days after application, visual (100%=total damage; 0%=no damage), read-out: Post-emergence Herbicidal Activity (% Phytotoxicity) AVEFA. The procedure, abridged:
as §1

Experiment [3] concerns Alopecurus myosuroides (ALOMY). The following applies: Alopecurus myosuroides, 312 h, application rate 250 g/ha, 13 days after application, visual (100%=total damage; 0%=no damage), read-out: Post-emergence Herbicidal Activity (% Phytotoxicity) ALOMY. The procedure, abridged:
as §1

Experiment [4] relates to Lolium perenne (LOLPE). To be noted: Lolium perenne, 312 h, application rate 250 g/ha, 13 days after application, visual (100%=total damage; 0%=no damage), read-out: Post-emergence Herbicidal Activity (% Phytotoxicity) LOLPE. In outline:
as §1

For `Cc1cc(C)c(C2C(=O)CC(CCNC(=O)c3cc(C(F)(F)F)nn3C)C2=O)c(C)c1` (stereo not drawn) [Compound A173], the pest or weed control at 250 g/ha in experiment [1], in experiment [2], in experiment [3] and in experiment [4] was 100% throughout.

For the compound `COCc1nc(C2CC2)c(C(=O)NCCC2CC(=O)C(c3c(C)cc(C)cc3C)C2=O)s1` (stereo not drawn) [Compound A174], the pest or weed control at 250 g/ha in experiment [1] came to 90%; in experiment [2] it was 100%; in experiment [3], 90%; in experiment [4], 100%.

For the compound `Cc1cc(C)c(C2C(=O)CC(CCNC(=O)c3nn(C)c(C)c3Cl)C2=O)c(C)c1` (stereo not drawn) [Compound A177], the pest or weed control at 250 g/ha in experiment [1] was found to be 100%; in experiment [2] it was 90%; in experiment [3] it was 100%; in experiment [4], 90%.

In the case of `Cc1cc(C)c(C2C(=O)CC(CCNC(=O)c3oc(C)nc3C)C2=O)c(C)c1` (stereo not drawn) [Compound A178], the pest or weed control at 250 g/ha amounted to 80% in experiment [1], 90% in experiment [2], 70% in experiment [3] and 100% in experiment [4].

As for `Cc1cc(C)c(C2C(=O)CC(CCNC(=O)c3c(C)noc3C)C2=O)c(C)c1` (stereo not drawn) [Compound A179], the pest or weed control at 250 g/ha in experiment [1] was determined as 80%; in experiment [2] it was 100%; in experiment [3], 70%; in experiment [4] it was 70%.

As for `Cc1cc(C)c(C2C(=O)CC(CCNC(=O)c3snnc3C)C2=O)c(C)c1` (stereo not drawn) [Compound A180], the pest or weed control at 250 g/ha was determined as 90% in experiment [1], 80% in experiment [2], 70% in experiment [3] and 80% in experiment [4].

Take `Cc1cc(C)c(C2C(=O)CC(CCNC(=O)c3ocnc3C)C2=O)c(C)c1` (stereo not drawn) [Compound A181]: the pest or weed control at 250 g/ha in experiment [1] is 80%; in experiment [2], 100%; in experiment [3], 80%; in experiment [4] it was 90%.

On to `Cc1cc(C)c(C2C(=O)CC(CCNC(=O)c3nc(C)sc3C)C2=O)c(C)c1` (stereo not drawn) [Compound A182], for which the pest or weed control at 250 g/ha was 90% in experiment [1], 90% in experiment [2], 80% in experiment [3] and 80% in experiment [4].

For the compound `Cc1cc(C)c(C2C(=O)CC(CCNC(=O)c3sc(C)nc3C(F)F)C2=O)c(C)c1` (stereo not drawn) [Compound A183], the pest or weed control at 250 g/ha in experiment [1] came out at 90%; in experiment [2], 60%; in experiment [3], 60%; in experiment [4], 90%.

Turning to `Cc1cc(-c2ccccc2Cl)cc(C)c1C1C(=O)CC(CCNC(=O)c2ccccn2)C1=O` (stereo not drawn) [Compound A184], the pest or weed control at 250 g/ha in experiment [1] worked out at 90%; in experiment [2], 20%; in experiment [3] it was 10%; in experiment [4], 60%.

With `Cc1cc(C)c(C2C(=O)CC(CCNC(=O)c3ncc(Br)cc3F)C2=O)c(C)c1` (stereo not drawn) [Compound A185], the pest or weed control at 250 g/ha in experiment [1] is 100%; in experiment [2], 100%; in experiment [3], 90%; in experiment [4] it was 100%.

Consider `Cc1cc(C)c(C2C(=O)CC(CCNC(=O)c3ccc(F)c(Br)n3)C2=O)c(C)c1` (stereo not drawn) [Compound A186], for which the pest or weed control at 250 g/ha was 100% in experiment [1], 90% in experiment [2], 100% in experiment [3] and 100% in experiment [4].

For `Cc1cc(C)c(C2C(=O)CC(CCNC(=O)c3ncc(F)cc3Br)C2=O)c(C)c1` (stereo not drawn) [Compound A187], the pest or weed control at 250 g/ha in experiment [1] turned out to be 100%; in experiment [2], 90%; in experiment [3] it was 90%; in experiment [4] it was 100%.

For the compound `Cc1cc(C)c(C2C(=O)CC(CCNC(=O)c3ccc(OC(F)F)cn3)C2=O)c(C)c1` (stereo not drawn) [Compound A188], the pest or weed control at 250 g/ha in experiment [1], in experiment [2], in experiment [3] and in experiment [4] was 100% each time.

With `Cc1cc(C)c(C2C(=O)CC(CCNC(=O)c3ncc(Cl)cc3F)C2=O)c(C)c1` (stereo not drawn) [Compound A189], the pest or weed control at 250 g/ha in experiment [1], in experiment [2], in experiment [3] and in experiment [4] was 100% each time.

In the case of `Cc1cc(C)c(C2C(=O)CC(CCNC(=O)c3ccc(C=C(F)F)cn3)C2=O)c(C)c1` (stereo not drawn) [Compound A190], the pest or weed control at 250 g/ha in experiment [1] amounted to 90%; in experiment [2], 90%; in experiment [3], 80%; in experiment [4] it was 90%.

For `Cc1cc(-n2cc(Cl)cn2)cc(C)c1C1C(=O)CC(CCNC(=O)c2nc(Br)ccc2F)C1=O` (stereo not drawn) [Compound A191], the pest or weed control at 250 g/ha came to 100% in experiment [1], 100% in experiment [2], 100% in experiment [3] and 90% in experiment [4].

For `CC#Cc1ccc(C(=O)NCCC2CC(=O)C(c3c(C)cc(C)cc3C)C2=O)nc1` (stereo not drawn) [Compound A192], the pest or weed control at 250 g/ha in experiment [1] was 100%; in experiment [2], 90%; in experiment [3] it was 80%; in experiment [4] it was 100%.

Regarding `Cc1cc(C)c(C2C(=O)CC(CCNC(=O)c3nc(Br)ccc3F)C2=O)c(C)c1` (stereo not drawn) [Compound A193], the pest or weed control at 250 g/ha in experiment [1] is 90%; in experiment [2], 90%; in experiment [3], 90%; in experiment [4], 100%.

For `Cc1cc(C)c(C2C(=O)CC(CCNC(=O)c3nccnc3Cl)C2=O)c(C)c1` (stereo not drawn) [Compound A194], the pest or weed control at 250 g/ha in experiment [1] worked out at 100%; in experiment [2] it was 90%; in experiment [3], 80%; in experiment [4], 90%.

Consider `Cc1cc(C)c(C2C(=O)CC(CCNC(=O)c3cnc(Cl)cn3)C2=O)c(C)c1` (stereo not drawn) [Compound A195], for which the pest or weed control at 250 g/ha in experiment [1] is 80%; in experiment [2], 30%; in experiment [3] it was 30%; in experiment [4], 60%.

As for `Cc1cc(C)c(C2C(=O)CC(CCNC(=O)c3cncc(Cl)n3)C2=O)c(C)c1` (stereo not drawn) [Compound A196], the pest or weed control at 250 g/ha in experiment [1] was 100%; in experiment [2] it was 90%; in experiment [3], 80%; in experiment [4] it was 90%.

For the compound `Cc1cc(Br)cc(Br)c1C1C(=O)CC(CCNC(=O)c2ccccn2)C1=O` (stereo not drawn) [Compound A197], the pest or weed control at 250 g/ha in experiment [1] is 100%; in experiment [2] it was 70%; in experiment [3] it was 90%; in experiment [4], 60%.

In the case of `Cc1cc(-c2cc(Cl)cc(Cl)c2)cc(C)c1C1C(=O)CC(CCNC(=O)c2ccccn2)C1=O` (stereo not drawn) [Compound A203], the pest or weed control at 250 g/ha was 100% in experiment [1], 100% in experiment [2], 80% in experiment [3] and 80% in experiment [4].

`Cc1ccc(-c2cc(C)c(C3C(=O)CC(CCNC(=O)c4ccccn4)C3=O)c(C)c2)cc1` (stereo not drawn) [Compound A204]: the pest or weed control at 250 g/ha in experiment [1] stood at 100%; in experiment [2], 90%; in experiment [3] it was 90%; in experiment [4], 100%.

Take `Cc1cc(C)c(C2C(=O)CC(CCNC(=O)c3snc(Cl)c3Cl)C2=O)c(C)c1` (stereo not drawn) [Compound A212]: the pest or weed control at 250 g/ha in experiment [1] is 70%; in experiment [2], 50%; in experiment [3] it was 30%; in experiment [4], 70%.

Take `Cc1cc(C)c(C2C(=O)CC(CCNC(=O)c3sc(Cl)nc3C(F)(F)F)C2=O)c(C)c1` (stereo not drawn) [Compound A213]: the pest or weed control at 250 g/ha was 50% in experiment [1], 10% in experiment [2], 10% in experiment [3] and 60% in experiment [4].

Consider `COC(=O)OC(C)OC1=C(c2c(C)cc(C)cc2C)C(=O)C(CCNC(=O)c2ccc(Br)cn2)C1` (stereo not drawn) [Compound P3], for which the pest or weed control at 250 g/ha in experiment [1] was 100%; in experiment [2], 100%; in experiment [3], 90%; in experiment [4] it was 100%.

As for `CCSC(=O)OC1=C(c2c(C)cc(C)cc2C)C(=O)CC1CCNC(=O)c1ccc(Br)cn1` (stereo not drawn) [Compound P10], the pest or weed control at 250 g/ha in experiment [1], in experiment [2], in experiment [3] and in experiment [4] was 100% each time.

Turning to `CCOC(=O)OC1=C(c2c(C)cc(C)cc2C)C(=O)C(CCNC(=O)c2ccc(Br)cn2)C1` (stereo not drawn) [Compound P11], the pest or weed control at 250 g/ha in experiment [1], in experiment [2], in experiment [3] and in experiment [4] was 100% each time.

The record behind these values is patent publication US9808003B2, “Herbicidally active 2-(substituted-phenyl)-cyclopentane-1,3-dione compounds and derivatives thereof” (Syngenta Limited, priority 2013, dated 2017).
